Laboratory results from ChEMBL document CHEMBL5729649, “Enzyme inhibitors” (2023).

Assays:
Coagulation factor XI = Coagulation factor XI (Homo sapiens, UniProt P03951); assay: (§1) Determination of the % Inhibition for FXIa: FXIa inhibitory activity in vitro was determined using standard published methods (see e.g. Johansen et al., Int. J. Tiss. Reac. 1986, 8, 185; Shori et al., Biochem. Pharmacol., 1992, 43, 1209; Sturzebecher et al., Biol. Chem. Hoppe-Seyler, 1992, 373, 1025). Human FXIa (Enzyme Research Laboratories) was incubated at 25° C. with the fluorogenic substrate Z-Gly-Pro-Arg-AFC and 40 μM of the test compound (or alternatively at various concentrations of the test compound in order to determine IC50). Residual enzyme activity (initial rate of reaction) was determined by measuring the change in optical absorbance at 410 nm and the IC50 value for the test compound was determined.
Chain of Coagulation factor XI (P03951 19-387 limits assumed): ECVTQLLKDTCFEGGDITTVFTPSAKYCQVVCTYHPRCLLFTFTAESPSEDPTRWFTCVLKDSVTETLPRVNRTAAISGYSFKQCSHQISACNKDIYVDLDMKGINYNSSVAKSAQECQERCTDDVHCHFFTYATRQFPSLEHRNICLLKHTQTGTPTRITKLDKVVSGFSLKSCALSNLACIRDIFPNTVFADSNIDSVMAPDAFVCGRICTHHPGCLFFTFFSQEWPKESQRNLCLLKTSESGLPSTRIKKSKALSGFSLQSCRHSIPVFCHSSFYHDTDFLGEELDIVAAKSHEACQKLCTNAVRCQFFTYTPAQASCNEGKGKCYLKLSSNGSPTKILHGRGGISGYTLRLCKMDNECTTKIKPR
Chain of Coagulation factor XI (P03951 388-625 limits assumed): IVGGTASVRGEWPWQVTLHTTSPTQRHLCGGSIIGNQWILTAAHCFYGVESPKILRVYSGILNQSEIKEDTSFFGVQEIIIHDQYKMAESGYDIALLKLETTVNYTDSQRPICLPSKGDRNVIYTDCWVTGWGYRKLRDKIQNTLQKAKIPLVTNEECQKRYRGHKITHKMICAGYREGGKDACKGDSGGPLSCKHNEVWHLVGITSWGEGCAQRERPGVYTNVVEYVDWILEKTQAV

Kallikrein-1 = Kallikrein-1 (Homo sapiens, UniProt P06870); assay: as §1, with “IC50” for “% Inhibition”, “KLK1: KLK1” for “FXIa: FXIa”, “KLK1 (Callbiochem)” for “FXIa (Enzyme Research Laboratories)”, “H-DVal-Leu-Arg-AFC” for “Z-Gly-Pro-Arg-AFC”, “and” for “and 40 μM of the test compound (or alternatively at”, “compound.” for “compound in order to determine IC50).”
Chain of Kallikrein-1 (P06870 whole entry): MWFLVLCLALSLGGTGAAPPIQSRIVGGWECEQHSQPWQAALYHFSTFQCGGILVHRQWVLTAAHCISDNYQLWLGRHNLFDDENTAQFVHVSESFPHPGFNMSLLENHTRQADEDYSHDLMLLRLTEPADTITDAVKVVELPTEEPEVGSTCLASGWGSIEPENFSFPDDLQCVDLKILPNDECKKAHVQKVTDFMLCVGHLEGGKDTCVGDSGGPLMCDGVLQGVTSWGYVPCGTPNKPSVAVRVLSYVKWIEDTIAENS

Plasma kallikrein = Plasma kallikrein (Homo sapiens, UniProt P03952); assay: as §1, with “IC50” for “% Inhibition”, “Plasma Kallikrein: Plasma kallikrein” for “FXIa: FXIa”, “plasma kallikrein (Protogen)” for “FXIa (Enzyme Research Laboratories)”, “H-DPro-Phe-Arg-AFC” for “Z-Gly-Pro-Arg-AFC”, “and” for “and 40 μM of the test compound (or alternatively at”, “compound.” for “compound in order to determine IC50).”
Chain of Plasma kallikrein (P03952 20-390 limits assumed): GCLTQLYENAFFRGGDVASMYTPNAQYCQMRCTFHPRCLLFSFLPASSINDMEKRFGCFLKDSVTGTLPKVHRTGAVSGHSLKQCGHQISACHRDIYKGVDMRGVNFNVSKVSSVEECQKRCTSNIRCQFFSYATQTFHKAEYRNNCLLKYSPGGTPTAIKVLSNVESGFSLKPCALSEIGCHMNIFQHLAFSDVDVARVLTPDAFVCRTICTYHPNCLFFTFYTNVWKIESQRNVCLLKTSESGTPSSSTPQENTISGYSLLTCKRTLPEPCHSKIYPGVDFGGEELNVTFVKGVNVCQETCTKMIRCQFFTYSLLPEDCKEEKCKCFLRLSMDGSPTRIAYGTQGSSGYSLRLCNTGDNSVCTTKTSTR
Chain of Plasma kallikrein (P03952 391-638 limits assumed): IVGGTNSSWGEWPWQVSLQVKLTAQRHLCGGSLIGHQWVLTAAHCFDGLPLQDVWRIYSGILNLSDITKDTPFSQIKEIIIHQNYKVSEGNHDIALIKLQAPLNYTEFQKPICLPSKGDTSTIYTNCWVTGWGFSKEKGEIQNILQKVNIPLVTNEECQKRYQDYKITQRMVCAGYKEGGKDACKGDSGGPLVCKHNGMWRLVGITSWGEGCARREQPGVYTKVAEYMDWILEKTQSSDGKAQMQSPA

IC50 (Coagulation factor XI) [nM] | IC50 (Kallikrein-1) [nM] | IC50 (Plasma kallikrein) [nM] | Structure (SMILES)
1840 | > 40000 | < 10 | COCc1nn(Cc2cnc(N3CCCC3)nc2)cc1C(=O)NCc1c(-n2cc(C)nn2)ccc(OC)c1F
> 40000 | > 40000 | < 10 | COCc1nn(Cc2ccc3c(c2)CN(C(C)C)C3)cc1C(=O)NCc1c(-n2cc(C)nn2)ccc(OC)c1F
970 | > 40000 | < 10 | COCc1nn(Cc2cnc(N3CCCC3)nc2)cc1C(=O)NCc1c(-n2ccnn2)ccc(OC)c1F
